Source: patent US7378419B2, “9-amino-podophyllotoxin derivatives, method for the production thereof and pharmaceutical compositions containing said derivatives” (Les Laboratoires Servier, priority 2003, dated 2008)
Each block holds one compound with its values, some of them ahead of it.

Tests used:
SK-N-MC = assay: In vitro cytotoxicity, microculture tetrazolium assay, SK-N-MC; format: cell-based; details: Homo sapiens; SK-N-MC neuroblastoma, 48 hours exposure
Procedure: (§1) Six cell lines were used: • 1 murine leukemia: L1210 • 1 human epidermal carcinoma: KB-3-1 • 1 human pulmonary carcinoma, not small cell: A549 • 1 melanoma: A375 • 1 neuroblastoma: SK-N-MC • 1 fibrosarcoma: HT1080
(§2) The cells are cultivated in complete RPMI 1640 culture medium containing 10% of fetal calf serum, 2 mM of glutamine, 50 U/ml of penicillin, 50 μg/ml of streptomycin and 10 mM of Hepes, pH: 7.4. The cells are distributed in microplates and exposed to cytotoxic compounds for 4 doubling times, which is 48 hours. The number of viable cells is then quantified by a […] assay, the microculture tetrazolium assay (J. Carmichael et al., Cancer Res.; 47, 936-942, (1987)). The results are expressed as IC50, the cytotoxic concentration that inhibits the proliferation of the treated cells by 50%.

HT1080 = assay: In vitro cytotoxicity, microculture tetrazolium assay, HT1080; format: cell-based; details: Homo sapiens, HT-1080; HT1080 fibrosarcoma, 48 hours exposure
Procedure: as §1, §2

KB-3-1 = assay: In vitro cytotoxicity, microculture tetrazolium assay, KB-3-1; format: cell-based; details: KB-3-1 human epidermal carcinoma, 48 hours exposure
Procedure: as §1, §2

[1] = test system: A549 human pulmonary carcinoma; assay: In vivo anti-tumor activity on A549 human pulmonary carcinoma; details: A549, 3.12 mg/kg
Text: *Anti-Tumor Activity of the Compounds on P388 Leukemia and on A549 Human Pulmonary Carcinoma:
(§3) The anti-tumor activity is expressed in T/C %: T/C%=(median survival time of the treated animals)/(median survival time of the control animals)×100

A549 = assay: In vitro cytotoxicity, microculture tetrazolium assay, A549; format: cell-based; details: A549 human pulmonary carcinoma, not small cell, 48 hours exposure
Procedure: as §1, §2

L1210 cells = assay: Action on the cell cycle (G2+M accumulation); format: cell-based, murine; details: L1210, after 21 hours, concentration of 250 nM (control: 20%)
Procedure: The L1210 cells are incubated for 21 hours at 37° C. in the presence of various concentrations of the products tested. The cells then are fixed with 70% ethanol (v/v), washed twice in PBS and incubated for 30 minutes at 20° C. in PBS containing 100 μg/ml of RNase and 50 μg/ml of propidium iodide. The results are expressed as a percentage of cells accumulated in phase G2+M after 21 hours compared to the control (control: 20%). The compounds of examples 2 and 4 induce an accumulation of 70% and 81%, respectively, of the cells in phase G2+M after 21 hours at a concentration of 250 nM.

A375 = assay: In vitro cytotoxicity, microculture tetrazolium assay, A375; format: cell-based; details: Homo sapiens, A-375; A375 melanoma, 48 hours exposure
Procedure: as §1, §2

P388 leukemia = assay: In vivo anti-tumor activity on P388 leukemia; details: P388, 50 mg/kg, intravenously on day 1, female BDF1 mice
Procedure: The P388 line (murine leukemia) was provided by the National Cancer Institute (Frederick, Md., USA). The tumor cells (10^6 cells) were inoculated on day 0 in the peritoneal cavity of female BDF1 mice (Iffa-Credo, France) weighing from 18 to 20 g (groups of 6 animals). The products were administered intravenously on day 1.
as §3

L1210 = assay: In vitro cytotoxicity, microculture tetrazolium assay, L1210; format: cell-based; details: L1210 murine leukemia, 48 hours exposure
Procedure: as §1, §2

SMILES: COc1cc([C@@H]2c3cc4c(cc3[C@@H](NC3=CC(=O)N(C)C3=O)[C@H]3COC(=O)[C@H]23)OCO4)cc(OC)c1O [Example 2, 3-{[(5S,5aS,8aR,9R)-9-(4-Hydroxy-3,5-dimethoxyphenyl)-8-oxo-5,5a,6,8,8a,9-hexahydrofuro[3′,4′:6,7]naphtho[2,3-d][1,3]dioxol-5-yl]amino}-1-methyl-1H-pyrrole-2,5-dione]
- IC50 (SK-N-MC): 106 nM
- IC50 (HT1080): 75.8 nM
- IC50 (KB-3-1): 66.6 nM
- T/C [1]: 225%
- IC50 (A549): 110 nM
- percentage of cells accumulated in phase G2+M (L1210 cells): 70%
- IC50 (A375): 44.2 nM
- T/C (median survival time treated/control x 100) (P388 leukemia): > 575%
- animals surviving as of day 60 (P388 leukemia): 50%
- IC50 (L1210; Mus musculus): 54 nM

SMILES: COc1cc([C@@H]2c3cc4c(cc3[C@@H](NC3=CC(=O)N(Cc5ccc(F)cc5)C3=O)[C@H]3COC(=O)[C@H]23)OCO4)cc(OC)c1O[Si](C)(C)C(C)(C)C
- melting point: 182 to 184 °C

SMILES: COc1cc([C@@H]2c3cc4c(cc3[C@@H](NC3=C(C)C(=O)N(C)C3=O)[C@H]3COC(=O)[C@H]23)OCO4)cc(OC)c1O
- melting point: 172 to 176 °C

SMILES: COc1cc([C@@H]2c3cc4c(cc3[C@@H](NC3=CC(=O)N(Cc5ccccc5)C3=O)[C@H]3COC(=O)[C@H]23)OCO4)cc(OC)c1O [Example 4, 3-{[(5S,5aS,8aR,9R)-9-(4-Hydroxo-3,5-dimethoxyphenyl)-8-oxo-5,5a,6,8,8a,9-hexahydrofuro[3′,4′:6,7]naphtho[2,3-d][1,3]dioxol-5-yl]amino}-1-benzyl-1H-pyrrole-2,5-dione]
- percentage of cells accumulated in phase G2+M (L1210 cells): 81%
- IC50 (L1210): 29 nM

SMILES: COc1cc([C@@H]2c3cc4c(cc3[C@@H](NC3=CC(=O)N(CCCCCC(=O)O)C3=O)[C@H]3COC(=O)[C@H]23)OCO4)cc(OC)c1O
- melting point: 150 to 152 °C

The next lines start with the values.

- melting point: 184 to 186 °C
SMILES: COc1cc([C@@H]2c3cc4c(cc3[C@@H](NC3=CC(=O)N(Cc5ccc(C(F)(F)F)cc5)C3=O)[C@H]3COC(=O)[C@H]23)OCO4)cc(OC)c1O

- melting point: 180 to 183 °C
SMILES: C=CCN1C(=O)C=C(N[C@@H]2c3cc4c(cc3[C@@H](c3cc(OC)c(O)c(OC)c3)[C@H]3C(=O)OC[C@@H]32)OCO4)C1=O

- melting point: 177 to 179 °C
SMILES: COc1cc([C@@H]2c3cc4c(cc3[C@@H](NC3=CC(=O)N(Cc5ccc(NC(C)=O)cc5)C3=O)[C@H]3COC(=O)[C@H]23)OCO4)cc(OC)c1O[Si](C)(C)C(C)(C)C

- melting point: 214 to 216 °C
SMILES: COc1cc([C@@H]2c3cc4c(cc3[C@@H](NC3=CC(=O)N(Cc5ccc(F)cc5)C3=O)[C@H]3COC(=O)[C@H]23)OCO4)cc(OC)c1O

- melting point: 200 to 204 °C (dec.)
SMILES: COc1cc([C@@H]2c3cc4c(cc3[C@@H](NC3=CC(=O)N(Cc5ccc(NC(C)=O)cc5)C3=O)[C@H]3COC(=O)[C@H]23)OCO4)cc(OC)c1O
